Tested on: Botrytis cinerea
Assay: M1 Activity against the grey mold Botrytis cinerea in the microtiterplate test (Botrci)
Type: cell-based
Conditions: 31 ppm, 405 nm, 7 days after inoculation; compound-free control 100%

Structure (SMILES)	growth (relative growth in % of the pathogen) [%]
OC(Cn1cncn1)(c1ccc(-c2ccccc2)cc1Cl)C1CC1 (stereo not shown) [Compound I-1]	0
CC(C)(C)C(O)(Cn1cncn1)c1ccc(-c2ccccc2)cc1Cl (stereo not shown) [Compound I-7]	0
CC(O)(Cn1cncn1)c1ccc(-c2ccccc2)cc1Cl (stereo not shown) [Compound I-8]	0
C=CCCC(O)(Cn1cncn1)c1ccc(-c2ccccc2)cc1Cl (stereo not shown) [Compound I-9]	0
CC#CC(O)(Cn1cncn1)c1ccc(-c2ccccc2)cc1Cl (stereo not shown) [Compound I-10]	0
CCC(O)(Cn1cncn1)c1ccc(-c2ccccc2)cc1Cl (stereo not shown) [Compound I-13]	0
CC(F)(F)C(O)(Cn1cncn1)c1ccc(-c2ccccc2)cc1Cl (stereo not shown) [Compound I-14]	0

Reference: US20170107185A1, “SUBSTITUTED [1,2,4]TRIAZOLE AND IMIDAZOLE COMPOUNDS AS FUNGICIDES” (BASF SE, priority 2014, published 2017)
